Experimental findings from US12486267B2, “Imidazo[1,2-A]pyridine and [1,2,4]triazolo[1,5-A]pyridine derivatives as TLR9 inhibitors for the treatment of fibrosis” (BRISTOL-MYERS SQUIBB COMPANY, priority 2020, dated 2025) are described below.

Where only a bound is given, the exact number is not on record here.

Holding throughout (assay type): cell-based
In one assay the target is T1, human TLR7 (Homo sapiens, UniProt Q9NYK1).
T1 sequence (Q9NYK1 27-1049): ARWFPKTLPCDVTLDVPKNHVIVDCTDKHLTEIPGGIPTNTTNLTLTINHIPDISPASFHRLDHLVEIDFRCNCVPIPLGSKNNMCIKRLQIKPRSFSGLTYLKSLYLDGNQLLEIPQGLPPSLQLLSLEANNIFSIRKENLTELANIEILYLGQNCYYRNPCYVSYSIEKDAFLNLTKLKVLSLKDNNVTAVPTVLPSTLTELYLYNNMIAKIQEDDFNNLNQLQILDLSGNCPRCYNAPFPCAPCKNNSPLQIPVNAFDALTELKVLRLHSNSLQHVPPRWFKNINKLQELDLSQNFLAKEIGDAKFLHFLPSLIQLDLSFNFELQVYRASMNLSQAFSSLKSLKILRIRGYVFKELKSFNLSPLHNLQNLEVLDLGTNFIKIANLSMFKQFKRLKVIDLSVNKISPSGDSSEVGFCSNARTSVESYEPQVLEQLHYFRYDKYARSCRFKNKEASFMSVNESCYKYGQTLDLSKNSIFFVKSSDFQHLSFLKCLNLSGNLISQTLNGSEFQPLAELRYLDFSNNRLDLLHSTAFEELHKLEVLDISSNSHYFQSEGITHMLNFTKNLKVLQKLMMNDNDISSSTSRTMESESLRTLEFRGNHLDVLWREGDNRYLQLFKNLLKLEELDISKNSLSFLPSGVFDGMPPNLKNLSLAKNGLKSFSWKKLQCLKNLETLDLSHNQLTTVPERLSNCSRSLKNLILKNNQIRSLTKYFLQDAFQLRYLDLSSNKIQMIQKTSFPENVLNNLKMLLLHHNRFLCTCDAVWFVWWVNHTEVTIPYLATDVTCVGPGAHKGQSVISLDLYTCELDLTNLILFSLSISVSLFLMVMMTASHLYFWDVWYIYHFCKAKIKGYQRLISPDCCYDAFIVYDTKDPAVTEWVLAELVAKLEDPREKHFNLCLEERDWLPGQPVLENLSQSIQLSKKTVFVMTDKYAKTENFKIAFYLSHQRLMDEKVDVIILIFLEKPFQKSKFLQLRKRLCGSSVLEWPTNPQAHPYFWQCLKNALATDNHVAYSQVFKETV
Nature of the assay: TLR7 inhibition reporter assay (HEK-Blue cells, SEAP reporter). Conditions: HEK-Blue cells overexpressing human TLR7; stimulated with gardiquimod 7.5 μM; 22 hour incubation; SEAP readout. How it is done: (§1) TLR7/8/9 Inhibition Reporter Assays
(§2) HEK-Blue™-cells (Invivogen) overexpressing human TLR7, TLR8 or TLR9 receptors were used for screening inhibitors of these receptors using an inducible SEAP (secreted embryonic alkaline phosphatase) reporter gene under the control of the […] minimal promoter fused to five NF-κB and AP-1-binding sites. Briefly, cells are seeded into Greiner 384 well plates (15000 cells per well for TLR7, 20,000 for TLR8 and 25,000 for TLR9) and then treated with test compounds in DMSO to yield a final dose response concentration range of 0.05 nM-50 μM. After a 30 minute compound pre-treatment at room temperature, the cells are then stimulated with a TLR7 ligand (gardiquimod at a final concentration of 7.5 μM), TLR8 ligand (R848 at a final concentration of 15.9 μM) or TLR9 ligand (ODN2006 at a final concentration of 5 nM) to activate NF-κB and AP-1 which induce the production of SEAP. After a 22 hour incubation at 37° C., 5% CO2, SEAP levels are determined with the addition of HEK-Blue™ Detection reagent (Invivogen), a cell culture medium that allows for detection of SEAP, according to manufacturer's specifications. The percent inhibition is determined as the % reduction in the HEK-Blue signal present in wells treated with agonist plus DMSO alone compared to wells treated with a known inhibitor.
(Reporter assays use an easily measured gene product as a stand-in for the process of interest.)

The next assay has as its target T2, human TLR8 (Homo sapiens, UniProt Q9NR97).
T2 sequence (Q9NR97 27-1041): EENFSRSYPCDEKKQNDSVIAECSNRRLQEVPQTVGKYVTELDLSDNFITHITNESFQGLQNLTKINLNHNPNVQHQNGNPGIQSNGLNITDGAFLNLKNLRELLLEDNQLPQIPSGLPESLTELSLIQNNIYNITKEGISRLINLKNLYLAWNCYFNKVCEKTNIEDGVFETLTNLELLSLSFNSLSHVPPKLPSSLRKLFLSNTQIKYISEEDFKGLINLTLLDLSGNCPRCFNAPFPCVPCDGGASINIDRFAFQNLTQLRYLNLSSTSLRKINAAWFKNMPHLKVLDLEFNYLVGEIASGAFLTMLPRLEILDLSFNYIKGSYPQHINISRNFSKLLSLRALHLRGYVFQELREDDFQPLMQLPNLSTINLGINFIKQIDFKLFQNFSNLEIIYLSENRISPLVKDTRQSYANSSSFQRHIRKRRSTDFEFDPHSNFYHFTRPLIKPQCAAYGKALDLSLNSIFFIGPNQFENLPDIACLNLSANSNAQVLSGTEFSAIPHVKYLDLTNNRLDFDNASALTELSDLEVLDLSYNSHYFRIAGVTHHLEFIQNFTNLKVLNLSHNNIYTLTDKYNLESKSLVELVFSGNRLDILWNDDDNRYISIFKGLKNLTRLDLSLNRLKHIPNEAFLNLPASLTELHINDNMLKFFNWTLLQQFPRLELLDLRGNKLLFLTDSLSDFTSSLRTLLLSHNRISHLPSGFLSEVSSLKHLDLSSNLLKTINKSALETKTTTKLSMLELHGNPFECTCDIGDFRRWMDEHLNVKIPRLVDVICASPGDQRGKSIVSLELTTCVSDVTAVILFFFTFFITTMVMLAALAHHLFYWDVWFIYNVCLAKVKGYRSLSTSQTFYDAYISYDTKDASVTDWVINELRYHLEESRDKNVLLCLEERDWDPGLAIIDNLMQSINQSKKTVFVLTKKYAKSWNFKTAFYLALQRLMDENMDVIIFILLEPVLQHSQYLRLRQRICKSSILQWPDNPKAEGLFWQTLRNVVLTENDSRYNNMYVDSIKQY
As to the kind of experiment: TLR8 inhibition reporter assay (HEK-Blue cells, SEAP reporter). The following applies: HEK-Blue cells overexpressing human TLR8; stimulated with R848 15.9 μM; 22 hour incubation; SEAP readout. How it is done:
as §1, §2

Another assay deals with T3, human TLR9 (Homo sapiens, UniProt Q9NR96).
T3 sequence (Q9NR96 26-1032): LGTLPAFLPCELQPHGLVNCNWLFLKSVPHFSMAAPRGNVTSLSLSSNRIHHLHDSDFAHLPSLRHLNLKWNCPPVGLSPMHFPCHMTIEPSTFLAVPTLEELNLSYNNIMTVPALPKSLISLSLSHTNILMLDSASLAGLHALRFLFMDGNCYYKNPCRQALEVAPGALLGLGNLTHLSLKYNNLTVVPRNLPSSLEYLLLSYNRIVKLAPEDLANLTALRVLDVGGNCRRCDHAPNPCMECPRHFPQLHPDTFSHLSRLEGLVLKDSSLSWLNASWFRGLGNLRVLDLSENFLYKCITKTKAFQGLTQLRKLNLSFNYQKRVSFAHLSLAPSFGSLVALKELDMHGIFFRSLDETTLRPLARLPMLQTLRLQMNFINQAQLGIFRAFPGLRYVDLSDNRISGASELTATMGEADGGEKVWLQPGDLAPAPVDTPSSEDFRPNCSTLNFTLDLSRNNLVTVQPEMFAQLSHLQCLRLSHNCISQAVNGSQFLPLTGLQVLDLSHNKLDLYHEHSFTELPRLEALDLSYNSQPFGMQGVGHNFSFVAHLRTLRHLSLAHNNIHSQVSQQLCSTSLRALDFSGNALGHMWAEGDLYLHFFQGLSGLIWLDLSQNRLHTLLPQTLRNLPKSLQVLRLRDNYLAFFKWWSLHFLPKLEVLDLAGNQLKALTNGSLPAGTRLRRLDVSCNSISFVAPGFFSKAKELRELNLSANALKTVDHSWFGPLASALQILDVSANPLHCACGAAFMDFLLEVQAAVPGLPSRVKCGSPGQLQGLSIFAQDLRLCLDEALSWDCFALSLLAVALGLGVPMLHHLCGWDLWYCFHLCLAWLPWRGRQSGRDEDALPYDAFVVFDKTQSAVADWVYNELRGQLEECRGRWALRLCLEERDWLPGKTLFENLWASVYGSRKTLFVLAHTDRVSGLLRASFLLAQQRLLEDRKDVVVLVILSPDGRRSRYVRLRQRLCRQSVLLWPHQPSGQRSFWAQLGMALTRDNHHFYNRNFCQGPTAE
As to the kind of experiment: TLR9 inhibition reporter assay (HEK-Blue cells, SEAP reporter). Conditions: HEK-Blue cells overexpressing human TLR9; stimulated with ODN2006 5 nM; 22 hour incubation; SEAP readout. On the procedure: as §1, §2

The IC50 is the concentration at which inhibition is half-maximal. Turning to `COc1ccc(-c2cn3c(n2)CC[C@@H](C2CCN(C4CC5CCC(C4)N5CC(C)C)CC2)C3)cc1OC` (single isomer, unassigned) [Example 77], the IC50 against human TLR7 was 3.6 µM; on human TLR8, over 25 µM; against human TLR9, 64 nM.

Turning to `COc1ccc(-c2cn3c(n2)CCC(C2CCN(C4CCN(CC5CC5)CC4)CC2)C3)cc1OC` (racemic) [Example 55, 6-(1′-(cyclopropylmethyl)-[1,4′-bipiperidin]-4-yl)-2-(3,4-dimethoxyphenyl)-5,6,7,8-tetrahydroimidazo[1,2-a]pyridine], the figures for the IC50 at human TLR7, against human TLR8 and at human TLR9 were 1.6 µM, over 50 µM and 38 nM, respectively.

On to `COc1ccc(-c2cn3c(n2)CC(C2CCN(C4CCN(C(C)C)CC4)CC2)CC3)cc1OC` (racemic) [Example 58, 2-(3,4-dimethoxyphenyl)-7-(1′-isopropyl-[1,4′-bipiperidin]-4-yl)-5,6,7,8-tetrahydroimidazo[1,2-a]pyridine], for which the IC50 on human TLR7 amounted to 13 µM; on human TLR8, 15 µM; at human TLR9, 60 nM.

Consider `COc1ccc(-c2cn3c(n2)CCC(C2CCN(C4CC5(C4)CN(C4CCC4)C5)CC2)C3)cc1OC` (racemic) [Example 48, 6-(1-(2-cyclobutyl-2-azaspiro[3.3]heptan-6-yl)piperidin-4-yl)-2-(3,4-dimethoxyphenyl)-5,6,7,8-tetrahydroimidazo[1,2-a]pyridine], for which the figures for the IC50 on human TLR7, against human TLR8 and against human TLR9 were 2 µM, over 50 µM and 112 nM, respectively.

For `Cc1cc(-c2ccc(N3CCN(C4CCC4)CC3)cc2)cn2cc(-c3ccc(S(C)(=O)=O)cc3)nc12` [Example 102, 6-(4-(4-cyclobutylpiperazin-1-yl)phenyl)-8-methyl-2-(4-(methylsulfonyl)phenyl) imidazo[1,2-a]pyridine], the IC50 amounted to 6.3 µM at human TLR7, 17 µM at human TLR8 and 710 nM against human TLR9.

Regarding `COc1ccc(-c2cn3c(n2)CC[C@@H](C2CCN(C4CC5CCC(C4)N5CC(C)C)CC2)C3)cc1OC` (single isomer, unassigned) [Example 78], the values for the concentration for half-maximal inhibition (IC50) at human TLR7, against human TLR8 and on human TLR9 were 8.6 µM, over 25 µM and 108 nM, respectively.

As for `CC(C)CN1CCCC(N2CCC(c3cc(F)c4nc(-c5ccc(S(C)(=O)=O)cc5)cn4c3)CC2)CC1` (single isomer, unassigned) [Example 126, 8-fluoro-6-(1-(1-isobutylazepan-4-yl)piperidin-4-yl)-2-(4-(methylsulfonyl)phenyl) imidazo[1,2-a]pyridine], the half-inhibitory concentration (IC50) came out at 7.4 µM on human TLR7, 46.7 µM against human TLR8 and 7.8 nM against human TLR9.

As for `CS(=O)(=O)c1ccc(-c2cn3cc(C4CCN(C5CCN(C6CCC6)CC5)CC4)cc(F)c3n2)cc1` [Example 110, 6-(1′-cyclobutyl-[1,4′-bipiperidin]-4-yl)-8-fluoro-2-(4-(methylsulfonyl)phenyl) imidazo[1,2-a]pyridine], the results for the IC50 against human TLR7, at human TLR8 and against human TLR9 were 2.4 µM, over 50 µM and 4.6 nM, respectively.

As for `Cc1cc(C2CCN(C3CCN(C(C)C)CC3)CC2)cn2nc(-c3ccc(S(C)(=O)=O)cc3)nc12` [Example 162, 6-(1′-isopropyl-[1,4′-bipiperidin]-4-yl)-8-methyl-2-(4-(methylsulfonyl)phenyl)-[1,2,4]triazolo[1,5-a]pyridine], the 50% inhibitory concentration (IC50) on human TLR7 was 6.9 µM; against human TLR8 it was over 50 µM; at human TLR9, 79 nM.

For `COc1ccc(-c2nc3cc(C4CCN(C5CCN(CC(C)C)CC5)CC4)ccn3n2)cc1OC` [Example 61, 2-(3,4-dimethoxyphenyl)-7-(1′-isobutyl-[1,4′-bipiperidin]-4-yl)-[1,2,4]triazolo[1,5-a]pyridine], the IC50 on human TLR7 was 11 µM; at human TLR8, over 50 µM; against human TLR9, 1240 nM.
